Our source for the IC50 and Selectivity values is ChEMBL document CHEMBL1145025, “Structure-activity relationship of (1-aryl-2-piperazinylethyl)piperazines: antagonists for the AGRP/melanocortin receptor binding” (J Med Chem, 2003).

The target in experiment [1] is T1, Melanocortin receptor 4 (Homo sapiens, UniProt P32245). Description: In vitro ability to inhibit the binding of [125I]AGRP to the human Melanocortin 4 receptor.
In experiment [2] the target is T1, Melanocortin receptor 4. Description: In vitro ability to inhibit the binding of alpha [125I]NDP-MSH to the human Melanocortin 4 receptor.
Experiment [3] concerns the target T1, Melanocortin receptor 4. Description: Fold selectivity for AGRP vs NDP-MSH binding was reported.
Experiment [4] can be described thus: Fold selectivity for AGRP vs NDP-MSH binding was reported; Minimal Activity.
Experiment [5] is described as follows: Fold selectivity for AGRP vs NDP-MSH binding to human MC4R was reported; Minimal activity.

pIC50: −log10 of the molar value. Calls of active or inactive are those of the source. Bounds are passed on as bounds.

T1 sequence (P32245 whole entry): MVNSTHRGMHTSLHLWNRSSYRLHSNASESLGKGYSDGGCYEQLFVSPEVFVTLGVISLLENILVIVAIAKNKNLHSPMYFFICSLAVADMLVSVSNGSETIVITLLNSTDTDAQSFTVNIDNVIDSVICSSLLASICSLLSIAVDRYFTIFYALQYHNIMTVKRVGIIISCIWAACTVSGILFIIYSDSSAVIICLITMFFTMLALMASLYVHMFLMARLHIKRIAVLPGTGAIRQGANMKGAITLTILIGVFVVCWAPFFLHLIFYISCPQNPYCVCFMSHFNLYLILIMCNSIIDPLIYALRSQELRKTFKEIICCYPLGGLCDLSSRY

As to `CC(CN1CCN(CC(c2ccc(Cl)cc2)N2CCN(C)CC2)CC1)C(=O)c1ccc(Cl)cc1` (configuration not stated), the pIC50 on Melanocortin receptor 4 [1] was 6.93; at Melanocortin receptor 4 [2] it was 6.82. This compound also returned a Selectivity on Melanocortin receptor 4 [3] of 0.8.
Turning to `CC(CN1CCN(CC(c2cccc(Cl)c2)N2CCN(C)CC2)CC1)C(=O)c1ccccc1` (configuration not stated), the pIC50 was 6.47 at Melanocortin receptor 4 [1] and 6.22 at Melanocortin receptor 4 [2]. On Melanocortin receptor 4 [3], this compound yielded a Selectivity of 1.8.
On the same counts, the results for `CC(CN1CCN(CC(c2ccc(F)cc2)N2CCN(C)CC2)CC1)C(=O)c1ccc(C(F)(F)F)cc1` (configuration not stated) are 6.09, 6.33 and 0.5.
On the same counts, the results for `CC(CN1CCN(CC(c2ccc(F)cc2)N2CCN(C)CC2)CC1)C(=O)c1ccc([N+](=O)[O-])cc1` (configuration not stated) are 6.23, 5.82 and 2.5.
For `CN1CCN(C(CN2CCN(CCC(=O)c3ccccc3)CC2)c2ccc(F)cc2)CC1` (configuration not stated), the pIC50 at Melanocortin receptor 4 [1] and at Melanocortin receptor 4 [2] was less than 5.00 each time. Moreover, the Selectivity result in experiment [4] is “Partially active”.
For the compound `CC(CN1CCN(CC(c2ccc(F)cc2)N2CCN(c3ccccc3)CC2)CC1)C(=O)c1ccccc1` (configuration not stated), the pIC50 is 5.54 at Melanocortin receptor 4 [1] and 6.60 on Melanocortin receptor 4 [2]. In addition, the Selectivity on Melanocortin receptor 4 [3] was 0.1.
Regarding `CCN1CCN(C(CN2CCN(CC(C)C(=O)c3ccccc3)CC2)c2ccc(F)cc2)CC1` (configuration not stated), the pIC50 is 6.49 on Melanocortin receptor 4 [1] and 6.71 at Melanocortin receptor 4 [2]. In addition, the Selectivity on Melanocortin receptor 4 [3] was found to be 1.6.
Taken in the same sequence, the figures for `CC(CN1CCN(CC(c2ccc(F)cc2)N2CCN(C)CC2)CC1)C(=O)c1ccc(Cl)cc1` (configuration not stated) were 6.58, 6.75 and 0.7.
`CN1CCN(C(CN2CCN(CCCc3ccccc3)CC2)c2ccc(F)cc2)CC1` (configuration not stated): the values for the pIC50 at Melanocortin receptor 4 [1] and on Melanocortin receptor 4 [2] were less than 5.00 and 5.42, respectively. Besides, the Selectivity result in experiment [4] is “Partially active”.
On the same counts, the results for `CN1CCN(C(CN2CCN(CC3CCc4ccccc4C3=O)CC2)c2ccc(Cl)cc2)CC1` (configuration not stated) are less than 5.00, 5.49 and “Partially active”.
For the compound `COc1ccc(C(=O)C(C)CN2CCN(CC(c3ccc(F)cc3)N3CCN(C)CC3)CC2)cc1` (configuration not stated), the pIC50 is 5.67 on Melanocortin receptor 4 [1] and 6.22 on Melanocortin receptor 4 [2]. Also, the Selectivity at Melanocortin receptor 4 [3] amounted to 0.3.
In the case of `CC(CN1CCN(CC(c2ccc(F)cc2)N2CCN(C)CC2)CC1)C(=O)c1ccc(Cl)c(Cl)c1` (configuration not stated), the pIC50 was 6.44 at Melanocortin receptor 4 [1] and 6.73 at Melanocortin receptor 4 [2]. The compound further yielded a Selectivity on Melanocortin receptor 4 [3] of 0.5.
Taken in the same sequence, the figures for `CC(CN1CCN(CC(c2ccc(F)cc2)N2CCN(C3CCCCC3)CC2)CC1)C(=O)c1ccccc1` (configuration not stated) were 6.82, 6.79 and 1.
As for `CC(CN1CCN(CC(c2ccccc2)N2CCN(C)CC2)CC1)C(=O)c1ccccc1` (configuration not stated), the pIC50 on Melanocortin receptor 4 [1] is less than 5.30; on Melanocortin receptor 4 [2], less than 5.00. Moreover, the Selectivity result in experiment [5] is “Partially active”.

The pIC50 is −log10 of the IC50, conventionally taken in molar units.
